Laboratory results reported in patent publication US20250304620A1, “ANTIMICROBIAL PEPTIDE AND APPLICATION THEREOF” (priority 2023, published 2025).
In brackets after ≈: the same amount, converted by molar mass. Where two headings read alike, the source gives them in different places. Marks after values point to notes of the source that are not given here. Non-standard residues stand in square brackets, D forms with d. Residues, ends and D or L forms follow the SMILES beside them. PEG2000 = polyethylene glycol 2000, conjugated to the N-terminus; PEG4000 = polyethylene glycol 4000, conjugated to the C-terminus; 2Nal = N[C@@H](Cc1ccc2ccccc2c1)C(=O)O; d2Nal = N[C@H](Cc1ccc2ccccc2c1)C(=O)O; PEG1000 = polyethylene glycol 1000

Assays:
Candida krusei ATCC 6258 = format: cell-based
Source text: (§1) According to the Standards of Clinical and Laboratory Standards Institute (CLSI) of the USA for antimicrobial drug susceptibility test operation standards, the micronutrient serial twofold dilution method was used further determine MICs of 30 AMPs (S/N: LV-1 to LV-30) 10 clinically common sensitive strains and 6 fungi in clinical practice. The experiment was repeated 5 times in parallel.

[1] = tested on: Candida glabrata ATCC 15126; format: cell-based
Source text: as §1

[2] = tested on: Staphylococcus aureus ATCC 25923; format: cell-based
Source text: as §1

[3] = tested on: Corynebacterium ATCC 7715; format: cell-based
Source text: as §1

[4] = tested on: Bacillus subtilis ATCC 6633; format: cell-based
Source text: as §1

[5] = tested on: Salmonella typhimurium ATCC 14028; format: cell-based
Source text: as §1

[6] = tested on: Klebsiella pneumoniae ATCC 700603; format: cell-based
Source text: as §1

[7] = tested on: Pseudomonas aeruginosa ATCC 27853; format: cell-based
Source text: as §1

[8] = tested on: Serratia marcescens ATCC 29021; format: cell-based
Source text: as §1

[9] = tested on: Candida albicans ATCC MYA-2876; format: cell-based
Source text: as §1

Candida utilis ATCC 9950 = format: cell-based
Source text: as §1

[10] = Serum stability assay (residual level by RP-HPLC); details: human
[11] = tested on: Shigella flexneri ATCC 12022; experiment: MIC against clinically common bacterial strain; format: cell-based
Source text: as §1

[12] = tested on: carbapenem-resistant Klebsiella pneumoniae (CRKP); format: cell-based
Source text: (§2) According to the Standards of Clinical and Laboratory Standards Institute (CLSI) of the USA for antimicrobial drug susceptibility test operation standards, the micronutrient serial twofold dilution method was used further determine MICs of the antimicrobial peptides LV-1 to LV-30 against 5 clinically common drug-resistant bacterial strains. The experiment was repeated 5 times in parallel. […] The tested drug-resistant strains included Methicillin-resistant Staphylococcus aureus (MRSA), carbapenem-resistant Escherichia coli (CREC), vancomycin-resistant Enterococcus (VRE), carbapenem-resistant Pseudomonas aeruginosa (CRPA), and carbapenem-resistant Klebsiella pneumoniae (CRKP).

[13] = tested on: carbapenem-resistant Pseudomonas aeruginosa (CRPA); format: cell-based
Source text: as §2

[14] = tested on: Methicillin-resistant Staphylococcus aureus (MRSA); format: cell-based
Source text: as §2

[15] = tested on: vancomycin-resistant Enterococcus (VRE); format: cell-based
Source text: as §2

[16] = tested on: carbapenem-resistant Escherichia coli (CREC); format: cell-based
Source text: as §2

rabbit red blood cells = format: cell-based; details: red cells of rabbit, 1 h
[17] = tested on: Pseudomonas aeruginosa ATCC 27853; experiment: Injectable formulations on mice infected with peritonitis; format: in vivo, ICR mice; details: twice a day for 3 days; for Number of mice that died on each day after infection: day 1 / Number of mice that died on each day after infection: day 2 / Number of mice that died on each day after infection: day 3 / Number of mice that died on each day after infection: day 4 / Number of mice that died on each day after infection: day 5 / Average survival times (Days): n = 10; for Average survival times (Days): observed for 14 d
Procedure: Both female and male ICR mice were used in the test, half of the female and male mice were taken and randomly assigned into groups, with 10 mice in each group, and kept in separate cages. The mice were divided into a blank control group, a negative control group, a positive control Levofloxacin group, and AMPs LV-1 to LV-30 groups. A bacterial suspension of Pseudomonas aeruginosa ATCC 27853 was prepared, a concentration of the suspension was adjusted 1×10^9 CFU/mL for subsequent use. Except for the blank control group, all other mice were injected with the bacterial suspension (0.2 mL, 1×10^9 CFU/mL), into abdominal cavity of the mice, to establish a model. After the model was successfully established, the mice were given drug immediately according to their body weights. Except for the blank control group and the negative control group, the mice in all other groups were administered the corresponding injectable formulations via tail vein, twice a day for 3 consecutive days. The mice were then observed for 14 d. The death of mice in each group was observed, and survival time of the mice was recorded. Results of the effect of the injectable formulations of AMPs LV-1 to LV-30 on the survival time of mice infected with Pseudomonas aeruginosa are shown in Table 10.

Compound	MIC Candida krusei ATCC 6258 (Candida krusei ATCC 6258)	MIC Candida glabrata ATCC 15126 [1]	MIC Staphylococcus aureus ATCC 25923 [2]	MIC Corynebacterium ATCC 7715 [3]	MIC Bacillus subtilis ATCC 6633 [4]	MIC Salmonella typhimurium ATCC 14028 [5]	MIC Klebsiella pneumoniae ATCC 700603 [6]	MIC Pseudomonas aeruginosa ATCC 27853 [7]	MIC Serratia marcescens ATCC 29021 [8]	MIC Candida albicans ATCC MYA-2876 [9]	MIC Candida utilis ATCC 9950 (Candida utilis ATCC 9950)	MIC Shigella flexneri ATCC 12022 [11]	Number of mice that died on each day after infection: day 1 ([17]; 1 mg/kg via tail vein)	Number of mice that died on each day after infection: day 2 ([17]; 1 mg/kg via tail vein)	Number of mice that died on each day after infection: day 3 ([17]; 1 mg/kg via tail vein)	Number of mice that died on each day after infection: day 4 ([17]; 1 mg/kg via tail vein)	Number of mice that died on each day after infection: day 5 ([17]; 1 mg/kg via tail vein)	Average survival times (Days) ([17]; 1 mg/kg via tail vein)	MIC CRKP ([12]; drug-resistant strain CRKP)	MIC CRPA ([13]; drug-resistant strain CRPA)	further results
CC(=O)N[C@H](CCCNC(=N)N)C(=O)N[C@H](CCCNC(=N)N)C(=O)N[C@H](CC(C)C)C(=O)N[C@H](CC(C)C)C(=O)N[C@H](Cc1ccc2ccccc2c1)C(=O)N[C@H](CCCNC(=N)N)C(=O)N[C@H](CC(C)C)C(=O)N[C@H](CCCNC(=N)N)C(=O)N[C@H](Cc1ccc2ccccc2c1)C(=O)N[C@H](CCCNC(=N)N)C(=O)N[C@H](CCCNC(=N)N)C(N)=O [LV-1] (Ac-[dR][dR][dL][dL][d2Nal][dR][dL][dR][d2Nal][dR][dR]-NH2)	4 µg/mL (≈ 2.31 µM)	8 µg/mL (≈ 4.62 µM)	1 µg/mL (≈ 0.578 µM)	2 µg/mL (≈ 1.16 µM)	4 µg/mL (≈ 2.31 µM)	2 µg/mL (≈ 1.16 µM)	4 µg/mL (≈ 2.31 µM)	1 µg/mL (≈ 0.578 µM)	2 µg/mL (≈ 1.16 µM)	8 µg/mL (≈ 4.62 µM)	8 µg/mL (≈ 4.62 µM)	4 µg/mL (≈ 2.31 µM)	0 Mouse	1 Mouse	1 Mouse	1 Mouse	0 Mouse	10.7**** Days			remaining at 12 h, 0.91 mg/mL [10]: 98.5%; MIC CRKP ([12]; carbapenem-resistant (CRKP)): 2 µg/mL (≈ 1.16 µM); MIC CRPA ([13]; carbapenem-resistant (CRPA)): 4 µg/mL (≈ 2.31 µM); MIC MRSA ([14]; Methicillin-resistant): 4 µg/mL (≈ 2.31 µM); MIC VRE [15]: 4 µg/mL (≈ 2.31 µM); MIC CREC ([16]; carbapenem-resistant (CREC)): 2 µg/mL (≈ 1.16 µM); MHC (minimum hemolytic concentration, lowest concentration causing 10% hemolysis) (rabbit red blood cells): >1000 µg/mL; Number of mice that died on each day after infection: day 1 ([17]; 0.2 mg/kg via tail vein): 1 Mouse; Number of mice that died on each day after infection: day 2 ([17]; 0.2 mg/kg via tail vein): 2 Mouse; Number of mice that died on each day after infection: day 3 ([17]; 0.2 mg/kg via tail vein): 1 Mouse; Number of mice that died on each day after infection: day 4 ([17]; 0.2 mg/kg via tail vein): 1 Mouse; Number of mice that died on each day after infection: day 5 ([17]; 0.2 mg/kg via tail vein): 1 Mouse; Average survival times (Days) ([17]; 0.2 mg/kg via tail vein): 7.3** Days; Number of mice that died on each day after infection: day 1 ([17]; 5 mg/kg via tail vein): 2 Mouse; Number of mice that died on each day after infection: day 2 ([17]; 5 mg/kg via tail vein): 1 Mouse; Number of mice that died on each day after infection: day 3 ([17]; 5 mg/kg via tail vein): 1 Mouse; Number of mice that died on each day after infection: day 4 ([17]; 5 mg/kg via tail vein): 0 Mouse; Number of mice that died on each day after infection: day 5 ([17]; 5 mg/kg via tail vein): 0 Mouse; Average survival times (Days) ([17]; 5 mg/kg via tail vein): 9.1** Days; survival time of mice infected with Pseudomonas aeruginosa ([17]; tail vein, observed 14 d): superior to those of the Levofloxacin group
Ac-RKLLXRLKXRK-PEG1000 [LV-28] (Ac-RKLL[2Nal]RLK[2Nal]RK-PEG1000) [polyethylene glycol 1000 conjugated to C-terminal; X=3-(2-naphthyl)-alanine]	4 µg/mL	8 µg/mL	2 µg/mL	8 µg/mL	4 µg/mL	4 µg/mL	4 µg/mL	2 µg/mL	8 µg/mL	8 µg/mL	8 µg/mL	4 µg/mL	1 Mouse	0 Mouse	1 Mouse	1 Mouse	1 Mouse	9.7*** Days	4 µg/mL	8 µg/mL	MIC MRSA ([14]; drug-resistant strain MRSA): 4 µg/mL; MIC VRE ([15]; drug-resistant strain VRE): 4 µg/mL; MIC CREC ([16]; drug-resistant strain CREC): 4 µg/mL
Ac-RKLLXRLKXRK-PEG4000 [LV-30] (Ac-RKLL[2Nal]RLK[2Nal]RK-PEG4000) [polyethylene glycol 4000 conjugated to C-terminal; X=3-(2-naphthyl)-alanine]	16 µg/mL	16 µg/mL	2 µg/mL	8 µg/mL	2 µg/mL	2 µg/mL	8 µg/mL	2 µg/mL	8 µg/mL	8 µg/mL	8 µg/mL	2 µg/mL	1 Mouse	1 Mouse	0 Mouse	1 Mouse	1 Mouse	9.6*** Days	4 µg/mL	8 µg/mL	MIC MRSA ([14]; drug-resistant strain MRSA): 8 µg/mL; MIC VRE ([15]; drug-resistant strain VRE): 4 µg/mL; MIC CREC ([16]; drug-resistant strain CREC): 4 µg/mL
PEG2000-RKLLXRLKXRK-NH2 [LV-29] (PEG2000-RKLL[2Nal]RLK[2Nal]RK-NH2) [polyethylene glycol 2000 conjugated to N-terminal; X=3-(2-naphthyl)-alanine]	8 µg/mL	8 µg/mL	2 µg/mL	16 µg/mL	4 µg/mL	4 µg/mL	4 µg/mL	4 µg/mL	4 µg/mL	8 µg/mL	4 µg/mL	4 µg/mL	1 Mouse	0 Mouse	0 Mouse	3 Mouse	1 Mouse	8.8** Days	8 µg/mL	4 µg/mL	MIC MRSA ([14]; drug-resistant strain MRSA): 4 µg/mL; MIC VRE ([15]; drug-resistant strain VRE): 4 µg/mL; MIC CREC ([16]; drug-resistant strain CREC): 8 µg/mL
